The text below walks through data of paper PMC9114674, “Synthesis of New 5′-Norcarbocyclic Aza/Deaza Purine Fleximers - Noncompetitive Inhibitors of E.coli Purine Nucleoside Phosphorylase” (Frontiers in Chemistry, 2022).

For series [1], the target named is T1, E. coli purine nucleoside phosphorylase (PNP) (Escherichia coli, UniProt P0ABP8).
T1 construct: gene deoD
T1 sequence (P0ABP8 2-239): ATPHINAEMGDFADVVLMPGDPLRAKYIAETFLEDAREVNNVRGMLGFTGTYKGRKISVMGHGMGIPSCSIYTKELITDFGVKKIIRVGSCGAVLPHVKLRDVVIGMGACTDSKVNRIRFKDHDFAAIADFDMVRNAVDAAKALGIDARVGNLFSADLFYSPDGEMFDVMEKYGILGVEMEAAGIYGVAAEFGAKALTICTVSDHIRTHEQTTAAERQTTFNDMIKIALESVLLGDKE
As to the kind of experiment: HPLC inosine phosphorolysis assay with recombinant enzyme, non-competitive inhibition kinetics. The format is biochemical.

Substrate in the series “purified protein”: OC[C@H]1O[C@@H](n2cnc3c(O)ncnc32)[C@H](O)[C@@H]1O
Briefly: purified protein. To be noted: phosphate active site. Type of series: biochemical, Escherichia coli.

In the case of `Nc1ccncc1-c1cnn([C@@H]2C[C@H](O)[C@@H](O)[C@H]2O)c1` [compound 1, 1-(2′,3′,4′-Trihydroxycyclopent-1′-yl)-4-(4-aminopyridin-3-yl)pyrazole], the inhibitory constant (Ki) (as a rule, a dissociation constant, usually derived from enzyme kinetics or from competition with a known ligand) in series [1] amounted to 17 ± 4 mM. For `Nc1ncccc1-c1cnn([C@@H]2C[C@H](O)[C@@H](O)[C@H]2O)c1` [compound 2, 1-(2′,3′,4′-Trihydroxycyclopent-1′-yl)-4-(2-aminopyridin-3-yl)pyrazole], the inhibition constant (Ki) in series [1] was 14 ± 1 mM.

For the molecule `Nc1ncncc1-c1cnn([C@@H]2C[C@H](O)[C@@H](O)[C@H]2O)c1` [compound 3, 1-(2′,3′,4′-Trihydroxycyclopent-1′-yl)-4-(4-aminopyrimidin-3-yl)pyrazole], in series [1], the inhibition constant (Ki) was found to be 24 ± 3 mM.

B1: E. coli purine nucleoside phosphorylase (PNP) (Escherichia coli K-12) (protein)
chain: ATPHINAEMGDFADVVLMPGDPLRAKYIAETFLEDAREVNNVRGMLGFTGTYKGRKISVMGHGMGIPSCSIYTKELITDFGVKKIIRVGSCGAVLPHVKLRDVVIGMGACTDSKVNRIRFKDHDFAAIADFDMVRNAVDAAKALGIDARVGNLFSADLFYSPDGEMFDVMEKYGILGVEMEAAGIYGVAAEFGAKALTICTVSDHIRTHEQTTAAERQTTFNDMIKIALESVLLGDKE
As for B1, in “purified protein”, the Michaelis constant (Km) (usually the substrate concentration at which the rate is half of its maximum) is 130 ± 10 µM and the kcat (as a rule, the maximal rate divided by the concentration of active sites) amounted to 900 ± 60 s⁻¹.
